Values joined by “and” are separate entries in the source; they are usually repeats but may differ in a detail not shown here. Equal values may be shown once.
Experiments:
[1] = test system: SK-MEL-28; experiment: Tumor cell line sensitivity to AS1411; assay type: cell-based
[2] = test system: HGC.27; experiment: Tumor cell line sensitivity to AS1411; assay type: cell-based
[3] = test system: HL-60 (AML cell line); experiment: Sulphorhodamine B assay, HL-60 cells; assay type: cell-based; conditions: 6 days, SRB
Procedure: (§1) MV4-11 cells (AML cell line available and obtained from ATCC under catalogue number CRL-9591) were seeded in wells of a 96-well plate at a number optimised for each cell line. 1 μM AS1411 was added with varying concentrations of cytarabine (0.002 to 1.5 μM) and cells were incubated for 6 days. A control was run with the 1 μM AS1411 without cytarabine. A second control series was run with the varying amounts of cytarabine but with no AS1411 present.
(§2) Cells were then washed, fixed to the 96-well plate and exposed to the dye Sulphorhodamine B (SRB; available from Sigma-Aldrich, Dorset, UK; catalogue number S-1402). The remaining cell mass after exposure to AS1411 was measured with a spectrophotometer and IC50 determined.
(§3) Multiple haematological cancer cell lines were exposed to varying concentrations of AS1411 over a period of 6 days according to the Sulphorhodamine B assay described in Example 1. […] (See FIG. 2). […] Normal fibroblast and B cells were however unaffected by similar concentrations of AS1411.

[4] = test system: U87-MG; experiment: Tumor cell line sensitivity to AS1411; assay type: cell-based
[5] = test system: ZR75-1; experiment: Tumor cell line sensitivity to AS1411; assay type: cell-based
[6] = test system: MV4-11 cells (AML cell line); experiment: Sulphorhodamine B assay, MV4-11 cells; assay type: cell-based, human; conditions: 6 days
Procedure: 1 μM AS1411 was added with varying concentrations of cytarabine (0.002 to 1.5 μM) and cells were incubated for 6 days. A control was run with the 1 μM AS1411 without cytarabine. A second control series was run with the varying amounts of cytarabine but with no AS1411 present.
The remaining cell mass after exposure to AS1411 was measured with a spectrophotometer and IC50 determined.

[7] = test system: PC3; experiment: Tumor cell line sensitivity to AS1411; assay type: cell-based
[8] = test system: DU-145; experiment: Tumor cell line sensitivity to AS1411; assay type: cell-based
[9] = test system: A549; experiment: Tumor cell line sensitivity to AS1411; assay type: cell-based
[10] = test system: human AML cell line MV4-11 xenografts; experiment: Combination therapy in a xenograft mouse model; assay type: in vivo, nu/nu MF1 mouse; conditions: for Fractional Tumor Volume (FTV) relative to untreated controls: single agent; for Average volume of tumors at 7 days post-treatment (tumor volume change): group average, Cytarabine 80 mg/kg/daily i.p.; for Average volume of tumors at 7 days post-treatment (tumor volume change) / Volume of individual tumors at 7 days post-treatment (indicating tumor volume change): day 7, AS1411 40 mg/kg/day s.c. minipump; for Volume of individual tumors at 7 days post-treatment (indicating tumor volume change): individual mice, Cytarabine 80 mg/kg/daily i.p. 5 days
Procedure: The nu/nu MF1 mouse strain has been used previously at these laboratories and background data are available. A total of 50 female MF1 mice were obtained from the Biological Research Facility, SGHMS, London) in a weight range of 5 to 6 weeks of age (nominally 23-28 g). Mice were individually identified using a subcutaneously implanted microchip.
The xenografts were prepared from the human AML cell line MV4-11 (DSMZ Number: CCL-102). Cells were grown in accordance with Standard Operating Procedures (SOP) and established methodology; suitable methods are known in the art. Cells were suspended at 2.0×10^8 cells/ml in ice-cold PBS, mixed 1:1 with ice-cold Matrigel™ Matrix (BD Biosciences, Lot 61459) and kept on ice until the time of injection into animals. Mice were injected subcutaneously with 100 μl cell suspension on the right flank.
Animals were checked regularly until visible tumors appeared. Tumors were measured in accordance with the relevant SOP twice per week and tumor volume calculated using the formula: Volume=(π÷6000)×(Tumor Length×Tumor Width×Tumor Height).
Measurements commenced approximately one week before the day of treatment when the xenograft had reached a volume of >0.03 cm^3.
Once the tumors were established, mice were allocated into groups using a randomisation procedure based on stratified xenograft volume. Measurements were recorded electronically using electronic calipers and the Trojan system for data capture.
Day 0 is defined as the day on which the average tumor volume is between 0.07 to 0.08 cm^3. Relative tumor volume on Day 0 is defined as 1.
AS1411 (manufactured by Avecia, UK, batch number: AQV-07H-005; expiry date 02/2009) was given by continuous infusion using ALZET mini-osmotic pumps (Durect Corp. CA, USA). The mini-pumps were implanted subcutaneously on days 0 on the left flank of mice (opposite to the tumor location). Mice received a dose of 40 mg/kg/day with a dose-volume of 1 μl/h lasting for 7 days. The minipumps were then removed and a second drug-loaded minipump implantation in the same location to last a further 7 days.
The intraperitoneal route of administration of Cytarabine was selected. Mice were administered with Cytarabine (DBL, Australia; batch number: TO11966AA; expiry date 02/2009) at 80 mg/kg/daily for 5 consecutive days with a dose-volume of 8 μl/g body weight starting on day 0. After 2 days gap a second cycle of a similar 5-day dosing was initiated on day 7. Control mice were untreated.
Mice (n=10) were allocated to groups as follows: • Untreated controls • Cytarabine alone • AS1411 alone • Cytarabine+AS1411
The Fractional Product method was used to analyse the combination therapy (Yokohama et al., 2000, Cancer Res., 60:2190-6). According to this method, the effects of two drugs, when combined, can be calculated by multiplying the fractional tumor volume (treated volume/control volume on a given day) by each single drug. If the effect of the drugs acting simultaneously is equal to or larger than that calculated, it would be assumed that additivity, or synergism, respectively, has occurred.
[Mean tumor volume test]/[Mean tumor volume control]
[Mean FTV of […]]×[Mean FTV of AS1411]
[Expected FTV]/[Observed FTV]
A combination therapy index R>1.0 indicates a synergistic effect.
A combination therapy index R<1.0 indicates a less than additive effect.

[11] = test system: MCF-7; experiment: Tumor cell line sensitivity to AS1411; assay type: cell-based
[12] = test system: KATO III; experiment: Tumor cell line sensitivity to AS1411; assay type: cell-based
[13] = test system: PANC-1; experiment: Tumor cell line sensitivity to AS1411; assay type: cell-based
[14] = test system: A498; experiment: Tumor cell line sensitivity to AS1411; assay type: cell-based
[15] = test system: SKOV-3; experiment: Tumor cell line sensitivity to AS1411; assay type: cell-based
[16] = test system: HT-29; experiment: Tumor cell line sensitivity to AS1411; assay type: cell-based
[17] = test system: AML cell line; experiment: Apoptosis, caspase, DNA fragmentation, PS externalization and cell cycle effects of AS1411 in AML cell line; assay type: cell-based; conditions: AS1411 administered to AML cell line
[18] = test system: LS174T; experiment: Tumor cell line sensitivity to AS1411; assay type: cell-based
[19] = test system: KG-1 (AML cell line); experiment: Sulphorhodamine B assay, KG-1 cells; assay type: cell-based; conditions: 6 days, SRB
Procedure: as §1, §2, §3

[20] = test system: B cells; experiment: Effect of AS1411 on normal cells; assay type: cell-based; conditions: similar concentrations of AS1411
Description: as §3

[21] = test system: Normal fibroblast; experiment: Effect of AS1411 on normal cells; assay type: cell-based; conditions: similar concentrations of AS1411
Description: as §3

[22] = test system: CALU06; experiment: Tumor cell line sensitivity to AS1411; assay type: cell-based

Q: How did the “sensitivity to AS1411” value [1] turn out when “5′-GGTGGTGGTGGTTGTGGTGG TGGTGG-3′ [AS1411]” was run?
A: sensitivity

Q: And the “sensitivity to AS1411” value [2]?
A: sensitivity

Q: What about the IC50 [3] of the same compound?
A: low

Q: And the “sensitivity to AS1411” value [4]?
A: sensitivity

Q: And the “sensitivity to AS1411” value [5]?
A: sensitivity

Q: And the IC50 ([6]; AS1411 alone, SRB)?
A: low

Q: And the “sensitivity to AS1411” value [7]?
A: sensitivity

Q: And the “sensitivity to AS1411” value [8]?
A: sensitivity

Q: And the “sensitivity to AS1411” value [9]?
A: sensitivity

Q: What about the “Relative tumor volume (relative to tumor volume at Day 0 of treatment)” value (“Relative tumor volume” below) ([10]; Day 0 (defined as 1)) of the same compound?
A: 1.000

Q: What about the “Relative tumor volume” value ([10]; Day 4) of the same compound?
A: 2.500

Q: What about the “Fractional Tumor Volume (FTV) relative to untreated controls” value ([10]; Day 4) of the same compound?
A: 0.848

Q: And the “Relative tumor volume” value ([10]; Day 7)?
A: 3.900

Q: What about the “Fractional Tumor Volume (FTV) relative to untreated controls” value ([10]; Day 7) of the same compound?
A: 0.915

Q: What about the “Average volume of tumors at 7 days post-treatment (tumor volume change)” value [10] of the same compound?
A: Average = 3.9

Q: And the “Volume of individual tumors at 7 days post-treatment (indicating tumor volume change)” value [10]?
A: 3.5 and 5.9 and 3.0 and 3.3 and 4.8 and 5.5 and 2.5 (2×) and 3.8 and 4.5 and 1.1

Q: And the “sensitivity to AS1411” value [11]?
A: sensitivity

Q: And the “sensitivity to AS1411” value [12]?
A: sensitivity

Q: And the “sensitivity to AS1411” value [13]?
A: sensitivity

Q: And the “sensitivity to AS1411” value [14]?
A: sensitivity

Q: And the “sensitivity to AS1411” value [15]?
A: sensitivity

Q: And the “sensitivity to AS1411” value [16]?
A: sensitivity

Q: And the DNA fragmentation [17]?
A: dose-dependent increase

Q: What about the PS externalization [17] of the same compound?
A: increase

Q: And the apoptosis [17]?
A: induction

Q: What about the caspase activity [17] of the same compound?
A: increase

Q: What about the “cell cycle effect in tumor cells” value [17] of the same compound?
A: arrest at the S-phase

Q: What about the “sensitivity to AS1411” value [18] of the same compound?
A: sensitivity

Q: What about the IC50 [19] of the same compound?
A: low

Q: What about the “effect on normal cells” value [20] of the same compound?
A: unaffected

Q: What about the “effect on normal cells” value [21] of the same compound?
A: unaffected

Q: And the “sensitivity to AS1411” value [22]?
A: sensitivity

Q: With `Nc1ccn([C@@H]2O[C@H](CO)[C@@H](O)[C@@H]2O)c(=O)n1` [Cytarabine, 1β-arabinofuranosylcytosine, reference compound] as the compound, how does the “reduction of IC50 of cytarabine by combination with AS1411” value ([6]; cytarabine 0.002 to 1.5 μM with 1 μM AS1411 vs cytarabine alone) read?
A: more than three-fold

Q: What about the “Relative tumor volume” value ([10]; Day 0 (defined as 1)) of the same compound?
A: 1.000

Q: What about the “Relative tumor volume” value ([10]; Day 4) of the same compound?
A: 1.900

Q: And the “Fractional Tumor Volume (FTV) relative to untreated controls” value ([10]; Day 4)?
A: 0.713

Q: What about the “Relative tumor volume” value ([10]; Day 7) of the same compound?
A: 3.100

Q: And the “Fractional Tumor Volume (FTV) relative to untreated controls” value ([10]; Day 7)?
A: 0.844

Q: And the “Average volume of tumors at 7 days post-treatment (tumor volume change)” value [10]?
A: Average = 3.1

Q: What about the “Volume of individual tumors at 7 days post-treatment (indicating tumor volume change)” value [10] of the same compound?
A: 7.2 and 3.5 and 2.8 and 1.5 and 2.4 (2×) and 3.4 and 2.5 and 2.2 and 1.1

Source: patent publication US20090131351A1, “Methods, compositions, and kits for modulating tumor cell proliferation” (Antisoma Research Limited, priority 2007, published 2009)
